Converted amounts (≈) assume the structure as drawn. Where two headings read alike, the source gives them in different places.
Key:
Escherichia coli = test: action against bacteria, MIC (bouillon agar); type: cell-based; conditions: 336 h
Method: An agar, containing bouillon as a nutrient medium, is treated with the active agents A and B (Example 2) given in Table II at concentrations from 1 to 5,000 ppm. The nutrient medium is then inoculated with either Escherichia coli or Staphylococcus aureus and the inoculated medium is maintained for 2 weeks at 28° C. and 60 to 70% relative atmospheric humidity. The MIC is the lowest concentration of active agent with which no growth by the type of microbe used ensues.

[1] = solubility of substance A compared to substance B; type: physicochemical
Method: Solubility of substance A compared to substance B (g/l at 20° C.): […]

Cladosporium herbarum = test: minimum inhibitory concentration against fungi (agar); type: cell-based; conditions: 336 h
Method: (§1) An agar prepared from beer wort and peptone is mixed with the substance according to the invention at concentrations from 0.5 mg/l to 5,000 mg/l.
(§2) After storage for 2 weeks at 28° C. and 60 to 70% relative atmospheric humidity, the MIC is determined. The MIC is the lowest concentration of active agent with which no growth by the type of microbe used ensues; it is given in the table below.

Trichoderma viride = test: as above; type: cell-based; conditions: 336 h
Method: as §1, §2

Stachybotris atra C. = test: as above; type: cell-based; conditions: 336 h
Method: as §1, §2

Penicillium glaucum = test: as above; type: cell-based; conditions: 336 h
Method: as §1, §2

Paecilomyces varioti = test: as above; type: cell-based; conditions: 336 h
Method: as §1, §2

Alternaria tenuis = test: as above; type: cell-based; conditions: Alternaria alternata, 336 h
Method: as §1, §2

Penicillium citrinum = test: as above; type: cell-based; conditions: 336 h
Method: as §1, §2

Pullularia pullulans = test: as above; type: cell-based; conditions: 336 h
Method: as §1, §2

Coniophora cerebella = test: as above; type: cell-based; conditions: 336 h
Method: as §1, §2

Aspergillus niger = test: as above; type: cell-based; conditions: 336 h
Method: as §1, §2

[2] = beer wort/peptone agar, 2 weeks at 28° C., 60 to 70% relative humidity, read-out: MIC

Question: Which MIC (Escherichia coli; bouillon agar, 2 weeks at 28° C., 60 to 70% relative humidity, read-out: MIC) does the source give for `O=C1C2C3C=CC(C3)C2C(=O)N1SC(F)(Cl)Cl` (stereo not shown) [A] here?
Answer: Its MIC is 200 µg/mL (≈ 0.675 mM).

Question: What about the Solubility ([1]; Ethyl acetate, 20° C.) of the same compound?
Answer: Its Solubility is 330 mg/mL (≈ 1110 mM).

Question: And the Solubility ([1]; Shellsol AB, 20° C.)?
Answer: Its Solubility is 140 mg/mL (≈ 473 mM).

Question: What about the Solubility ([1]; Solvesso 100, 20° C.) of the same compound?
Answer: Its Solubility is 200 mg/mL (≈ 675 mM).

Question: What about the Solubility ([1]; Xylene, 20° C.) of the same compound?
Answer: The Solubility was 250 mg/mL (≈ 844 mM).

Question: And the “solubility properties (in words)” value ([1]; particularly when compared to substance B)?
Answer: Its value is “very good solubility properties”.

Question: And the MIC (Cladosporium herbarum; [2])?
Answer: The MIC was 7 µg/mL (≈ 0.0236 mM).

Question: What about the MIC (Trichoderma viride; [2]) of the same compound?
Answer: Its MIC is 200 µg/mL (≈ 0.675 mM).

Question: What about the MIC (Stachybotris atra C.; Stachybotris atra C., beer wort/peptone agar, 2 weeks at 28° C., 60 to 70% relative humidity, read-out: MIC) of the same compound?
Answer: Its MIC is 15 µg/mL (≈ 0.0507 mM).

Question: What about the MIC (Penicillium glaucum; Penicillium glaucum, beer wort/peptone agar, 2 weeks at 28° C., 60 to 70% relative humidity, read-out: MIC) of the same compound?
Answer: The MIC was 10 µg/mL (≈ 0.0338 mM).

Question: And the MIC (Paecilomyces varioti; Paecilomyces varioti, beer wort/peptone agar, 2 weeks at 28° C., 60 to 70% relative humidity, read-out: MIC)?
Answer: The MIC was 10 µg/mL (≈ 0.0338 mM).

Question: And the MIC (Alternaria tenuis; Alternaria tenuis, beer wort/peptone agar, 2 weeks at 28° C., 60 to 70% relative humidity, read-out: MIC)?
Answer: The MIC was 10 µg/mL (≈ 0.0338 mM).

Question: What about the MIC (Penicillium citrinum; [2]) of the same compound?
Answer: The MIC was 7 µg/mL (≈ 0.0236 mM).

Question: And the MIC (Pullularia pullulans; Pullularia pullulans, beer wort/peptone agar, 2 weeks at 28° C., 60 to 70% relative humidity, read-out: MIC)?
Answer: Its MIC is 5 µg/mL (≈ 0.0169 mM).

Question: And the MIC (Coniophora cerebella; [2])?
Answer: The MIC was less than 1 µg/mL.

Question: And the MIC (Aspergillus niger; [2])?
Answer: Its MIC is 200 µg/mL (≈ 0.675 mM).

Question: With `CN(C)S(=O)(=O)N(SC(F)(Cl)Cl)c1ccccc1` [B] as the compound, how does the MIC (Escherichia coli) read?
Answer: Its MIC is 500 µg/mL (≈ 1.5 mM).

Question: What about the Solubility ([1]; Ethyl acetate, 20° C.) of the same compound?
Answer: Its Solubility is 117 mg/mL (≈ 351 mM).

Question: What about the Solubility ([1]; Shellsol AB, 20° C.) of the same compound?
Answer: Its Solubility is 60 mg/mL (≈ 180 mM).

Question: What about the Solubility ([1]; Solvesso 100, 20° C.) of the same compound?
Answer: The Solubility was 75 mg/mL (≈ 225 mM).

Question: What about the Solubility ([1]; Xylene, 20° C.) of the same compound?
Answer: Its Solubility is 65 mg/mL (≈ 195 mM).

Question: And the MIC (Cladosporium herbarum)?
Answer: Its MIC is 35 µg/mL (≈ 0.105 mM).

Question: And the MIC (Trichoderma viride)?
Answer: Its MIC is 5000 µg/mL (≈ 15 mM).

Question: And the MIC (Stachybotris atra C.)?
Answer: Its MIC is 50 µg/mL (≈ 0.15 mM).

Question: And the MIC (Penicillium glaucum; Penicillium)?
Answer: Its MIC is 35 µg/mL (≈ 0.105 mM).

Question: What about the MIC (Paecilomyces varioti; Paecilomyces) of the same compound?
Answer: Its MIC is 20 µg/mL (≈ 0.06 mM).

Question: And the MIC (Alternaria tenuis)?
Answer: Its MIC is 20 µg/mL (≈ 0.06 mM).

Question: What about the MIC (Penicillium citrinum) of the same compound?
Answer: Its MIC is 150 µg/mL (≈ 0.45 mM).

Question: And the MIC (Pullularia pullulans)?
Answer: Its MIC is 20 µg/mL (≈ 0.06 mM).

Question: What about the MIC (Coniophora cerebella) of the same compound?
Answer: The MIC was 10 µg/mL (≈ 0.03 mM).

Question: What about the MIC (Aspergillus niger) of the same compound?
Answer: Its MIC is 50 µg/mL (≈ 0.15 mM).

Reference: patent US4513003A, “Process for protecting wood using N-(dichlorofluoromethylthio)-3,6-endomethylene-Δ^4 -tetrahydrophthalimide” (Bayer Aktiengesellschaft, priority 1981, dated 1985)
